Test results as given in publication PMC11053077, “HBO1 catalyzes lysine lactylation and mediates histone H3K9la to regulate gene transcription” (Nature Communications, 2024).

Key:
HBO1 [1] = target: T1, HBO1 (Homo sapiens, UniProt O95251); assay: isothermal titration calorimetry (supported by in vitro histone lactylation assay with purified HBO1); assay type: binding
T1 construct: gene KAT7; HBO1 (336-611), acyltransferase/catalytic domain, purified from E. coli

HBO1 [2] = target: T1, HBO1; assay: isothermal titration calorimetry (supported by in vitro histone acetylation assay with purified HBO1); assay type: binding

T1 sequence (O95251 336-611): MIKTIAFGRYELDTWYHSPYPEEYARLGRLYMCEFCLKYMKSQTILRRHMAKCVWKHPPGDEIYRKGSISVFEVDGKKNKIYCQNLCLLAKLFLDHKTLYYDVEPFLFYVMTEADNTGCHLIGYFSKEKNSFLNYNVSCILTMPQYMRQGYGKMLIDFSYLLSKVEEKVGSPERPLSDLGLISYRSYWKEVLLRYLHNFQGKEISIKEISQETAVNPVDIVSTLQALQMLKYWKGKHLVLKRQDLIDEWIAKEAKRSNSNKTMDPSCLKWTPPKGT

SMILES	Kd (HBO1 [1])	Kd (HBO1 [2])
C[C@H](O)C(=O)SCCNC(=O)CCNC(=O)[C@H](O)C(C)(C)COP(=O)(O)OP(=O)(O)OC[C@H]1O[C@@H](n2cnc3c(N)ncnc32)[C@H](O)[C@@H]1OP(=O)(O)O [lactyl-CoA]	520 nM	
CC(=O)SCCNC(=O)CCNC(=O)[C@H](O)C(C)(C)COP(=O)(O)OP(=O)(O)OC[C@H]1O[C@@H](n2cnc3c(N)ncnc32)[C@H](O)[C@@H]1OP(=O)(O)O [acetyl-CoA]		1460 nM
